Data: publication PMC8963254, “Effects of Lysine N-ζ-Methylation in Ultrashort Tetrabasic Lipopeptides (UTBLPs) on the Potentiation of Rifampicin, Novobiocin, and Niclosamide in Gram-Negative Bacteria” (Antibiotics, 2022)
Read-outs that look alike come from different tables or passages of the source.

Experiments:
[1] = tested on: MRSA ATCC 33592; assay type: cell-based, Staphylococcus aureus
Procedure: (§1) The synergy of the UTBLPs with various antibiotics was assessed using checkerboard assay as previously described. Briefly, the combination of antibiotic and OMP at varying concentrations were incubated with bacterial inoculum (5 × 10^5 CFU/mL final concentration) at 37 °C for 18 h. Growth in the form of turbidity was confirmed using an EMax Plus microplate reader (Molecular Devices, Union City, CA, USA) at 590 nm. Fractional inhibitory concentration index (FICI) was used to evaluate the interaction between the antibiotic and the OMP. FICI is the sum of the FIC of the antibiotic and the FIC of the OMP. The FIC value is calculated by dividing the MIC of the agents in combination by the MIC of the agent alone. FICI ≤ 0.5 is synergistic, 0.5 < x ≤ 4 is additive, and >4 is antagonistic.

[2] = tested on: S. aureus ATCC 29213; assay type: cell-based, Staphylococcus aureus
Procedure: as §1

[3] = tested on: E. cloacae 118564; assay type: cell-based, Enterobacter cloacae; conditions: for MICUTBLP: UTBLP alone
Procedure: as §1

[4] = tested on: E. coli 94393; assay type: cell-based, Escherichia coli; conditions: for MICUTBLP: UTBLP alone
Procedure, shortened: (§2)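 Values derive from a two-agent checkerboard with an 18 h, 37 °C incubation. FICI cut-offs: ≤0.5 synergy, 0.5–4 additive, >4 antagonism.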

[5] = tested on: E. coli ATCC 25922; assay type: cell-based, Escherichia coli; conditions: for MICUTBLP: UTBLP alone
Procedure, shortened: as §2

[6] = tested on: E. faecium ATCC 27270; assay type: cell-based, Enterococcus faecium; conditions: ATCC 27270, 18 h
Procedure: (§3) The in vitro antibacterial activity of the UTBLPs was assessed against wild-type and clinically isolated bacterial strains. To obtain the MIC of the compounds, the microbroth dilution susceptibility assay was performed according to the Clinical and Laboratory Standards Institute (CLSI, Wayne, PA, USA) guidelines and as previously described. Briefly, the compounds at varying concentrations were incubated with bacterial inoculum (5 × 10^5 CFU/mL final concentration) at 37 °C for 18 h. Growth in the form of turbidity was confirmed using an EMax Plus microplate reader (Molecular Devices, San Jose, CA, USA) at 590 nm.

[7] = tested on: E. coli ATCC 25922; assay type: cell-based, Escherichia coli; conditions: ATCC 25922, 18 h
Procedure: as §3

[8] = tested on: MRSA ATCC 33592; assay type: cell-based, Staphylococcus aureus; conditions: ATCC 33592, 18 h
Procedure: as §3

[9] = tested on: S. aureus ATCC 29213; assay type: cell-based, Staphylococcus aureus; conditions: ATCC 29213, 18 h
Procedure: as §3

[10] = tested on: E. faecium ATCC 27270; assay type: cell-based, Enterococcus faecium
Procedure: as §1

[11] = tested on: K. pneumoniae 113250; assay type: cell-based, Klebsiella pneumoniae; conditions: for MICUTBLP: UTBLP alone
Procedure: as §1

[12] = tested on: E. faecalis ATCC 29212; assay type: cell-based, Enterococcus faecalis; conditions: ATCC 29212, 18 h
Procedure: as §3

[13] = tested on: MSSE 81388; assay type: cell-based, Staphylococcus epidermidis; conditions: 18 h
Procedure: as §3

[14] = tested on: MRSE 61589; assay type: cell-based, Staphylococcus epidermidis; conditions: 61589, 18 h
Procedure: as §3

[15] = tested on: P. aeruginosa PA262-101856; experiment: microbe, parasite or virus in culture; assay type: cell-based, Pseudomonas aeruginosa; conditions: PA262-101856, 18 h
Procedure, shortened: (§4)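 Minimum inhibitory concentration came from a CLSI broth dilution assay: 18 h at 37 °C, inoculum 5 × 10^5 CFU/mL final.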

[16] = tested on: P. aeruginosa PA259-96196; experiment: microbe, parasite or virus in culture; assay type: cell-based, Pseudomonas aeruginosa; conditions: PA259-96196, 18 h
Procedure, shortened: as §4

[17] = UTBLP alone, plate with chloramphenicol
[18] = UTBLP in combination with chloramphenicol
[19] = chloramphenicol in combination with the UTBLP
[20] = UTBLP in combination with novobiocin
[21] = UTBLP in combination with rifampicin
[22] = novobiocin in combination with the UTBLP
[23] = rifampicin in combination with the UTBLP

MICUTBLP [1, 17]: > 128 µg/mL | MICUTBLP [MICcombo] [1, 18]: 0.25 µg/mL | MICchloramphenicol [MICcombo] [1, 19]: 64 µg/mL | MICUTBLP [2, 17]: > 128 µg/mL | MICUTBLP [MICcombo] [2, 18]: 0.25 µg/mL | MICchloramphenicol [MICcombo] [2, 19]: 16 µg/mL | MICUTBLP ([3]; plate with novobiocin): > 128 µg/mL | MICUTBLP ([3]; plate with rifampicin): > 128 µg/mL | MICUTBLP [MICcombo] [3, 20]: 16 µg/mL | MICUTBLP [MICcombo] [3, 21]: 8 µg/mL | MICantibiotic [MICcombo] [3, 22]: 16 µg/mL | MICantibiotic [MICcombo] [3, 23]: 2 µg/mL | MICUTBLP ([4]; plate with novobiocin): > 128 µg/mL | MICUTBLP ([4]; plate with rifampicin): > 128 µg/mL | MICUTBLP [MICcombo] [4, 20]: 16 µg/mL | MICUTBLP [MICcombo] [4, 21]: 16 µg/mL | MICantibiotic [MICcombo] [4, 22]: 8 µg/mL | MICantibiotic [MICcombo] [4, 23]: 1 µg/mL | MICUTBLP ([5]; plate with chloramphenicol): > 128 µg/mL | MICUTBLP ([5]; plate with niclosamide): > 128 µg/mL | MICUTBLP ([5]; plate with novobiocin): > 128 µg/mL | MICUTBLP ([5]; plate with rifampicin): > 128 µg/mL | MICUTBLP [MICcombo] [5, 18]: 0.5 µg/mL | MICUTBLP [MICcombo] ([5]; UTBLP in combination with niclosamide): 16 µg/mL | MICUTBLP [MICcombo] [5, 20]: 16 µg/mL | MICUTBLP [MICcombo] [5, 21]: 16 µg/mL | MICantibiotic [MICcombo] [5, 19]: 2 µg/mL | MICantibiotic [MICcombo] ([5]; niclosamide in combination with the UTBLP): 8 µg/mL | MICantibiotic [MICcombo] [5, 22]: 4 µg/mL | MICantibiotic [MICcombo] [5, 23]: 1 µg/mL | MIC [6]: >128 µg/mL | MIC [7]: >128 µg/mL | MIC [8]: >128 µg/mL | MIC [9]: >128 µg/mL | MICUTBLP [10, 17]: > 128 µg/mL | MICUTBLP [MICcombo] [10, 18]: 0.25 µg/mL | MICchloramphenicol [MICcombo] [10, 19]: 8 µg/mL | MICUTBLP ([11]; plate with novobiocin): > 128 µg/mL | MICUTBLP ([11]; plate with rifampicin): > 128 µg/mL | MICUTBLP [MICcombo] [11, 20]: 16 µg/mL | MICUTBLP [MICcombo] [11, 21]: 16 µg/mL | MICantibiotic [MICcombo] [11, 22]: 32 µg/mL | MICantibiotic [MICcombo] [11, 23]: 4 µg/mL | MIC [12]: >128 µg/mL | MIC [13]: > 128 µg/mL | MIC [14]: > 128 µg/mL | MIC [15]: > 128 µg/mL | MIC [16]: > 128 µg/mL
Compound: CCCCCCCC(=O)N[C@@H](CCCCN(C)C)C(=O)NCCCN(CCCNC(=O)[C@H](CCCCN(C)C)NC(=O)CCCCCCC)CC(=O)N[C@@H](CCCCN(C)C)C(N)=O [UTBLP 3]
Interpretation ([1]; UTBLP + chloramphenicol): Additive (0.5 < x ≤ 4 is additive) | Interpretation ([3]; UTBLP + novobiocin): Synergy (FICI ≤ 0.5 is synergistic) | Interpretation ([3]; UTBLP + rifampicin): Synergy (FICI ≤ 0.5 is synergistic) | Interpretation ([4]; UTBLP + novobiocin): Synergy (FICI ≤ 0.5 is synergistic) | Interpretation ([4]; UTBLP + rifampicin): Synergy (FICI ≤ 0.5 is synergistic) | Interpretation ([5]; UTBLP + chloramphenicol): Additive (0.5 < x ≤ 4 is additive) | Interpretation ([5]; UTBLP + niclosamide): Synergy (FICI ≤ 0.5 is synergistic) | Interpretation ([5]; UTBLP + novobiocin): Synergy (FICI ≤ 0.5 is synergistic) | Interpretation ([5]; UTBLP + rifampicin): Synergy (FICI ≤ 0.5 is synergistic) | Interpretation ([10]; UTBLP + chloramphenicol): Additive (0.5 < x ≤ 4 is additive) | Interpretation ([11]; UTBLP + novobiocin): Synergy (FICI ≤ 0.5 is synergistic) | Interpretation ([11]; UTBLP + rifampicin): Synergy (FICI ≤ 0.5 is synergistic)
